The subject of one assay is HSC-T6 cells. The assay is described as follows: Measurement of intracellular ROS (DCFH-DA, flow cytometry and confocal microscopy). The class given is cell-based, mice. The note with it: HSC-T6, TGF-β 2 ng/ml; FIGS. 2-4. On the procedure:
For visualization and analysis of intracellular ROS, the oxidation-sensitive probe DCFH-DA was used, as previously described. To analyze the net intracellular generation of ROS by flow cytometry, cells were detached by trypsinization after incubation in the absence or presence of the different factors. The cellular fluorescence intensity was measured after 30 min incubation with […] DCFH-DA, by using the same flow cytometer described above. Propidium iodide (0.005%) was used to detect dead cells. For each analysis, 10,000 events were recorded. For confocal microscopy analysis, after incubation of cells in the absence or presence of the different factors, they were washed twice with PBS and the cellular fluorescence intensity was visualized after 30 min of incubation with […] DCFH-DA by using the same confocal microscopy described above. The analysis results were illustrated in FIGS. 2-4. […]
The influences of hepacin on mice-derived once-activated HSC-T6 line were studied. […] The luciferase activity was determined with or without 10, 5, 1 nM of hepacin in the absence or presence of 2 ng/ml of transforming growth factor TGF-β. The effects of hepacin on generation of intracellular reactive oxygen species (ROS) in HSC-T6 were also analyzed.

In the next assay the test system is TGF-β. The assay is described as follows: TGF-β mediated inflammation and fibrosis, cell model (HSC-T6) and animal model (mouse liver fibrosis). The settings on record: overall conclusion from the tests of Example 2 (FIGS. 5-10). On the procedure: The EMSA used the following oligonucleotides: consensus Sp1 (f), 5′-GTTGCGGGGCGGGGCCGAGTG-3′; consensus Sp1 (r), 3′-AACGCCCCGCCCCGGCTCACG-5′. 30 pmol of each of the forward and reverse oligonucleotides placed in a volume of 23 μl of 1× Klenow (DNA polymerase) buffer were heated at 94° C. for 2 min and annealed at room temperature for 30 min. The annealed double-stranded oligonucleotides were end-labeled by a fill-in reaction using DNA polymerase (Klenow)(Promega). One unit of the DNA polymerase (Klenow) and […] of (−32P)dCTP (PerkinElmer Life Sciences) were added into the annealed oligonucleotides and the mixture was incubated at 30° C. for 15 min. […] Samples were analyzed on a 4% polyacrylamide gel (acrylamide/bisacrylamide 29:1 in 0.5×Tris borate-EDTA buffer) at 10 V/cm for 2.5 h. The gel was dried and analyzed by autoradiography. […]
Liver samples (0.5 g) were lysed (Reporter lysis buffer, Promega, Madison, Wis., USA), the protein were boiled in Laemmli's sample buffer and samples were subjected to 10% SDSPAGE followed by western immunoblotting. […] Immunoreactive bands were detected using the enhanced chemiluminescence (ECL) reagent using SuperSignal West Pico Chemiluminescent Substrate (Pierce, Rockford, Ill., USA). The light emitted by the chemical reaction was detected by exposure to Hyperfilm ECL (Amersham Biosciences, Uppsala, Sweden). […]

Turning to `CC(C)=CCOc1ccc(C2=C(CC(C)C)C(=O)NC2=O)cc1` [Compound 2, 3-Isobutyl-4-[4-(3-methyl-2-butenyloxy)phenyl]-1H-pyrrole-2,5-dione], the ROS scavenging entry in the assay with HSC-T6 cells is “ROS Scavenger”. Further, the “TGF-β mediated inflammation and fibrosis” value with TGF-β is “Down Regulated TGF-β Mediated Inflammation and Fibrosis”.

For the origin of these results see patent US7732482B2, “Compound from Antrodia camphorata and the use thereof” (Simpson Biotech Co., Ltd., priority 2004, dated 2010).
